Laboratory results reported in patent US6139538A, “Iontophoretic agent delivery to the female reproductive tract” (Iotek, Inc., priority 1997, dated 2000).
Values joined by “and” are separate entries in the source; they are usually repeats but may differ in a detail not shown here. Equal values may be shown once. Read-outs that look alike come from different tables or passages of the source.

Details: 20 minutes
[1] = Experiment #1, active (A1, A2, A3): 4% lidocaine solution, 1 mA
[2] = Experiment #1, passive (P1, P2, P3): 4% lidocaine solution, no current
[3] = Experiment #2, active (A1, A2, A3): 4% lidocaine solution, 1 mA

CCN(CC)CC(=O)Nc1c(C)cccc1C [lidocaine]
Total μg in tissue [1]: 604.6 µg and 600.2 µg and 494.6 µg | μg/mL of lidocaine [1]: 120.9 µg/mL and 120.0 µg/mL and 98.9 µg/mL | Total μg in tissue [2]: 131.8 µg and 95.5 µg and 172.1 µg | μg/mL of lidocaine [2]: 26.4 µg/mL and 19.1 µg/mL and 34.4 µg/mL | Total μg/g in tissue [3]: 702.3 µg/g and 808.2 µg/g and 781.1 µg/g | μg/mL of lidocaine [3]: 140.5 µg/mL and 161.6 µg/mL and 156.2 µg/mL
